{"source": "patent US20170202818A1", "about": "“METHODS AND COMPOSITIONS TO MODIFY GSK-3 ACTIVITY” (Ohio University, priority 2014, published 2017)", "key": {"non-GSK-3 kinases": {"system": "non-GSK-3 kinases", "assay": "kinase screen, non-GSK-3 kinases", "settings": "COB-152 at 2 μM; COB-187 at 1 μM; FIG. 3"}, "[1]": {"system": "PMA differentiated THP-1 cells", "assay": "western blotting of β-catenin and GSK-3 in PMA differentiated THP-1 cells", "format": "cell-based, human", "settings": "for expression of β-catenin protein: PMA differentiated THP-1, 0.5-25 μM, 5 hours; for expression of GSK-3: PMA differentiated THP-1, higher concentrations, e.g., 10 μM and 25 μM", "procedure": "RAW 264.7 cells were cultured in RPMI 1640 medium supplemented with 10% FBS and 0.5% penicillin-streptomycin stabilized solution. THP-1 cells were cultured and differentiated into macrophages using phorbol 12-myristate 13-acetate (i.e., PMA). More specifically, THP-1 cells were cultured in RPMI-1640 10% FBS supplemented with 0.05 mM 2-mercaptoethanol. For differentiation to a macrophage phenotype, THP-1 cells were stimulated with PMA (50 ng/mL) for 24 hours. Differentiated THP-1 cells were washed with fresh media twice before incubation for 24 more hours at 37° C., 5% CO2 in a humidified incubator. The monolayer was then treated with ox-LDL or native LDL (both at either 50 or 100 μg/mL) and LPS (10 ng/mL) for 4 hours. Undifferentiated THP-1 cells were cultured and treated under similar conditions were used as a control.\n(§1) To test the ability of COB-187 and COB-152 to increase β-catenin levels, RAW 264.7 macrophages and PMA differentiated THP-1 cells were treated with COB-152 or COB 187 at different concentrations or 0.1% (v/v) DMSO solvent for 5 hours. Following treatment, protein was extracted and probed for β-catenin and total GSK-3 via western blotting.\n(§2) More specifically, RAW 264.7 cells and PMA differentiated THP-1 cells were treated with varying concentrations of COB-187 or COB-152 dissolved in culture media containing 0.1% (v/v) dimethylsulfoxide (i.e., DMSO) solvent or with 0.1% (v/v) DMSO alone for 5 or 24 hours. After incubation, […] protein was extracted from the cells and quantified. More specifically, culture supernatant was collected and store at −80° C. until further use. The cells were lysed in 10 mM Tris HCl at pH 7.5, 150 mM NaCl, and 1% nonyl phenoxypolyethoxylethanol-40, containing a cocktail of protease inhibitors (Roche, Mannheim, Germany). Insoluble material was pelleted and the supernatant containing total protein as well as the culture supernatant was quantified using a Micro BCA protein kit. […] of protein was then resolved onto a denaturing gel, transferred to a nitrocellulose membrane, and immunoblotted with antibodies against GSK-3 and β-catenin. Signals were detected using the Li-Cor Odyssey Infrared Imaging System (Lincoln, Nebr.). Membranes were stripped and reprobed with primary antibody for β-actin as a loading control. All experiments were performed at least thrice in both RAW 264.7 and PMA differentiated THP-1 cells, and in duplicates."}, "[2]": {"system": "PMA differentiated THP-1 human macrophages stimulated with LPS", "assay": "LPS-induced inflammatory cytokines in human macrophages (RT-PCR, ELISA)", "format": "cell-based", "settings": "LPS 10 ng/mL, 5 hours", "procedure": "(§3) THP-1 cells were differentiated using PMA (50 ng/mL) as previously described and stimulated with either LPS (10 ng/mL) or […] human Aβ(1-42) peptides alone, or in combination with COB-152, COB-187 or 0.1% DMSO solvent for 5 hours. Following incubation, the supernatant was collected and stored at −80° C. until assayed for IL-6, TNF-α, and IL-1β protein by ELISA, whereas RNA extracted from the cells was reverse transcribed and subjected to quantitative RT-PCR for quantification of IL-6, TNF-α, IL-1α, IL-1, and IFN-β mRNA. All experiments were performed at least thrice and in duplicates.\n(§4) RNA extracted from differentiated THP-1 cells treated as previously described was reverse transcribed to cDNA and subjected to quantitative RT-PCR. Relative IL-6, TNF-α, IL-1α, IL-1, and IFN-β gene expression was determined by normalizing with Hprt1 using the comparative Ct method. Commercially available cytokine ELISA kits (BD Biosciences, Burlington, N.C.) were used to quantify the levels of secreted IL-6, TNF-α, and IL-1 protein in the supernatant obtained from differentiated THP-1 cells treated with either LPS (10 ng/mL) or 10 μM human Aβ(1-42) peptides alone, or in combination with COB-152, COB-187 or 0.1% DMSO solvent. The ELISA was performed according to the manufacturer's protocol. The supernatant was diluted with the assay diluent at different ratios as shown in the TABLE 4 below for IL-6, TNF-α, and IL-1β. All samples were tested in duplicates and the results were expressed as Mean±SD of the cytokine concentration (pg/mL). All results presented were corrected for dilution factor."}, "[3]": {"system": "PMA differentiated THP-1 human macrophages stimulated with Aβ(1-42) peptides", "assay": "Aβ(1-42)-induced inflammatory cytokines in human macrophages (RT-PCR, ELISA)", "format": "cell-based", "settings": "Aβ(1-42) 10 μM, 5 hours; for concentration at which IL-1β protein production was decreased: ELISA; for IFN-β mRNA expression / IL-1α mRNA expression: dose-dependent", "procedure": "as §3, §4"}, "[4]": {"system": "RAW 264.7 murine macrophages", "assay": "western blotting of β-catenin and GSK-3 in RAW 264.7 macrophages", "format": "cell-based", "settings": "for expression of β-catenin protein: RAW 264.7, 0.5-25 μM, 5 hours; for expression of GSK-3: RAW 264.7, higher concentrations, e.g., 10 μM and 25 μM", "procedure": "as §1, §2"}, "GSK-3α": {"molecular_target": "GSK-3α (Homo sapiens, UniProt P49840)", "sequence (P49840 whole entry, species assumed)": "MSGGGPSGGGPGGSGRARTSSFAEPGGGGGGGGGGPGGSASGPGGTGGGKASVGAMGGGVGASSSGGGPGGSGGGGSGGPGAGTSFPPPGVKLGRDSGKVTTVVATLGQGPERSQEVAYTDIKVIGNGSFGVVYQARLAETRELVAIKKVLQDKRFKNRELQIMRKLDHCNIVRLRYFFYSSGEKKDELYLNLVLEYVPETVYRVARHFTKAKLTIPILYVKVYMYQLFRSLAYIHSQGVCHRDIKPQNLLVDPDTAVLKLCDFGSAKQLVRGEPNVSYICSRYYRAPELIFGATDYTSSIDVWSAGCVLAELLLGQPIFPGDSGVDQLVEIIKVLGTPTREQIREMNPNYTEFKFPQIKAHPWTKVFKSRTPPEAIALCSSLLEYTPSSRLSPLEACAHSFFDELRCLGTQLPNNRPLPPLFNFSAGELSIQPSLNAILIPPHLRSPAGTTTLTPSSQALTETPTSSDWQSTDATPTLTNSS", "assay": "fluorescence-based molecular assay of GSK-3α activity", "settings": "60 minutes at room temperature, Ser/Thr substrate and ATP", "description": "(§5) Subsequently, the solution was developed and the fluorescence was read to infer the activity of the protein."}, "[5]": {"system": "RAW 264.7 murine macrophages", "assay": "quantitative RT-PCR of β-catenin mRNA in RAW 264.7 cells", "format": "cell-based", "settings": "RAW 264.7, 4, 20 or 40 μM, 5 hours", "procedure": "RAW 264.7 cells were treated with varying concentrations of COB-187, COB-152 or 0.1% (v/v) DMSO solvent alone for 5 or 24 hours. Following treatment, RNA was extracted from the cells and reverse transcribed. More specifically, total RNA was isolated using RNeasy plus mini kit according to the manufacturer's protocol and quantified using a Nanodrop 2000C Spectrophotometer. First-strand cDNA was synthesized from total RNA using cDNA Reverse Transcription Kit according to the manufacturer's protocol. Quantitative RT-PCR was performed using Taqman Gene Expression Assay (Life Technologies, Waltham, Mass.) and mouse primers for GAPDH and β-catenin. Relative gene expression was determined by normalizing with GAPDH using the comparative Ct method. All experiments were performed at least thrice in duplicates."}, "GSK-3α and GSK-3β": {"system": "GSK-3α and GSK-3β", "assay": "kinase screen, GSK-3", "settings": "COB-152 at 2 μM; COB-187 at 1 μM; FIG. 3"}, "GSK-3β": {"molecular_target": "GSK-3β (Homo sapiens, UniProt P49841)", "sequence (P49841 whole entry, species assumed)": "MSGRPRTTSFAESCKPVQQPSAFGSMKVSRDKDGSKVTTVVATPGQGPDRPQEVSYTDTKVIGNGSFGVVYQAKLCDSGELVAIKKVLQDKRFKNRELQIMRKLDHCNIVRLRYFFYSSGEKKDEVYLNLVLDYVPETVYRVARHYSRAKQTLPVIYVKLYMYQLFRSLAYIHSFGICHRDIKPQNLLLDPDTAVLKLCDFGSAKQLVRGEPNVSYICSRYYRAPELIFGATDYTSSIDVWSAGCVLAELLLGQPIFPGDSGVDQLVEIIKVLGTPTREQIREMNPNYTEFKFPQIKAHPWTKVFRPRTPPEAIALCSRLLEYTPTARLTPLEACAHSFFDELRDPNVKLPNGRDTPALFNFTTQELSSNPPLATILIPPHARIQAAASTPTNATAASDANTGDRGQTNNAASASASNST", "assay": "fluorescence-based molecular assay of GSK-3β activity", "settings": "60 minutes at room temperature, Ser/Thr substrate and ATP", "description": "as §5"}, "[6]": {"settings": "cited from earlier work"}, "[7]": {"settings": "Alzheimer's disease, Phase IIb; cited from earlier work"}, "[8]": {"system": "LPS induced RAW macrophages", "assay": "LPS-induced IL-6 mRNA in RAW 264.7 macrophages", "format": "cell-based", "settings": "LPS stimulated murine macrophages, 0.1, 1 or 10 μM", "procedure": "RAW 264.7 were stimulated with either LPS (10 ng/mL) alone, or in combination with COB-152, COB-187 or 0.1% DMSO solvent for 5 hours. Following incubation, RNA was extracted from the cells. Quantitative RT-PCR was used to quantify expression of mRNA."}}, "note": "Like-named read-outs stand apart in the source and are kept apart here."}
{"smiles": "OC1(c2ccccc2)CSC(=S)N1Cc1ccncc1", "note": "(stereo not shown) [COB-187]", "values": [{"measurement": "effect on non-GSK-3 kinases, such as the cyclin dependent protein kinases", "setting": "non-GSK-3 kinases", "value": "little effect"}, {"measurement": "expression of β-catenin protein", "setting": "[1]", "value": "increased expression"}, {"measurement": "expression of GSK-3", "setting": "[1]", "value": "may also be affected"}, {"measurement": "IL-1α mRNA expression", "setting": "[2]", "value": "inhibited"}, {"measurement": "IL-6 production (mRNA and protein)", "setting": "[2]", "value": "dose-dependent decrease"}, {"measurement": "TNF-α production (mRNA and protein)", "setting": "[2]", "value": "dose-dependent decrease"}, {"measurement": "IL-1β protein production", "setting": "[2]; ELISA", "value": "dose-dependent decrease"}, {"measurement": "IL-6 production (mRNA and protein)", "setting": "[3]", "value": "dose-dependent decrease"}, {"measurement": "TNF-α production (mRNA and protein)", "setting": "[3]", "value": "dose-dependent decrease"}, {"measurement": "concentration at which IL-1β protein production was decreased", "setting": "[3]", "value": "≥ 10", "unit": "µM"}, {"measurement": "IFN-β mRNA expression", "setting": "[3]", "value": "inhibited"}, {"measurement": "IL-1α mRNA expression", "setting": "[3]", "value": "inhibited"}, {"measurement": "expression of β-catenin protein", "setting": "[4]", "value": "increased in a dose-dependent manner"}, {"measurement": "expression of GSK-3", "setting": "[4]", "value": "may also be affected"}, {"measurement": "IC50, inhibition of GSK-3α activity", "setting": "GSK-3α", "value": "nanomolar range"}, {"measurement": "expression of β-catenin mRNA", "setting": "[5]", "value": "did not alter"}, {"measurement": "activity of GSK-3α/β in kinase screen", "setting": "GSK-3α and GSK-3β", "value": "inhibit"}, {"measurement": "IC50, inhibition of GSK-3β activity", "setting": "GSK-3β", "value": "nanomolar range"}]}
{"smiles": "O=c1sn(-c2cccc3ccccc23)c(=O)n1Cc1ccccc1", "note": "[tideglusib]", "values": [{"measurement": "progression of global cerebral atrophy compared to placebo", "setting": "[6]; analysis of a sub-set of patients", "value": "reduced progression of global cerebral atrophy"}, {"measurement": "primary endpoint", "setting": "[6]; progressive supranuclear palsy, phase II", "value": "did not meet is primary endpoint"}, {"measurement": "primary endpoint", "setting": "[7]", "value": "primary endpoint was not achieved"}]}
{"smiles": "OC1(c2ccccc2)CSC(=S)N1Cc1cccnc1", "note": "(stereo not shown) [COB-152]", "values": [{"measurement": "effect on non-GSK-3 kinases, such as the cyclin dependent protein kinases", "setting": "non-GSK-3 kinases", "value": "little effect"}, {"measurement": "expression of β-catenin protein", "setting": "[1]", "value": "increased expression"}, {"measurement": "expression of GSK-3", "setting": "[1]", "value": "may also be affected"}, {"measurement": "IL-1α mRNA expression", "setting": "[2]", "value": "inhibited"}, {"measurement": "IL-6 production (mRNA and protein)", "setting": "[2]", "value": "dose-dependent decrease"}, {"measurement": "TNF-α production (mRNA and protein)", "setting": "[2]", "value": "dose-dependent decrease"}, {"measurement": "concentration at which IL-1β protein production was decreased", "setting": "[2]; ELISA", "value": "≥ 50", "unit": "µM"}, {"measurement": "IL-6 production (mRNA and protein)", "setting": "[3]", "value": "dose-dependent decrease"}, {"measurement": "TNF-α production (mRNA and protein)", "setting": "[3]", "value": "dose-dependent decrease"}, {"measurement": "concentration at which IL-1β protein production was decreased", "setting": "[3]", "value": "≥ 25", "unit": "µM"}, {"measurement": "IFN-β mRNA expression", "setting": "[3]", "value": "inhibited"}, {"measurement": "IL-1α mRNA expression", "setting": "[3]", "value": "inhibited"}, {"measurement": "IL-6 mRNA production", "setting": "[8]", "value": "dose dependently inhibited"}, {"measurement": "expression of β-catenin protein", "setting": "[4]", "value": "increased in a dose-dependent manner"}, {"measurement": "expression of GSK-3", "setting": "[4]", "value": "may also be affected"}, {"measurement": "expression of β-catenin mRNA", "setting": "[5]", "value": "did not alter"}]}
